Data on 8 molecules can be found in ChEMBL document CHEMBL3045658, “Design, synthesis, antiviral activity, and SARs of 14-aminophenanthroindolizidines” (2012).

For orientation: inhibition means the share of the control response that was lost under treatment. For orientation: inhibition in vivo means how much of the control response was suppressed.

Common to all, as to format: functional
For experiment [1], the system named is Tobacco mosaic virus. Briefly: Antiviral activity against Tobacco mosaic virus (TMV) inoculated in 5-6 growth stage leaf assessed as inhibition effect at 500 ug/mL at 25 degC after 72 hr by half-leaf method.
Experiment [2] deals with Tobacco mosaic virus. Briefly: In vivo antiviral activity against Tobacco mosaic virus (TMV) inoculated right side of Nicotiana. tabacum L. leaves assessed as protection effect at 500 ug/mL preincubated 12 hr before viral challenge measured after 3 to 4 days.
Experiment [3] has as its system Tobacco mosaic virus. Briefly: In vivo antiviral activity against Tobacco mosaic virus (TMV) inoculated right side of Nicotiana. tabacum L. leaves assessed as protection effect at 100 ug/mL preincubated 12 hr before viral challenge measured after 3 to 4 days.
Experiment [4] relates to Tobacco mosaic virus. Briefly: In vivo antiviral activity against Tobacco mosaic virus (TMV) pre-inoculated Nicotiana. tabacum L. leaves assessed as curative effect at 100 ug/mL measured after 3 to 4 days.
Experiment [5] deals with Tobacco mosaic virus. Briefly: Antiviral activity against Tobacco mosaic virus (TMV) inoculated in 5-6 growth stage leaf assessed as inhibition effect at 100 ug/mL at 25 degC after 72 hr by half-leaf method.
The subject of experiment [6] is Tobacco mosaic virus. Briefly: In vivo antiviral activity against Tobacco mosaic virus (TMV) inoculated left side of Nicotiana. tabacum L. leaves assessed as inactivation effect at 500 ug/mL co-incubated with virus measured after 3 to 4 days.
The subject of experiment [7] is Tobacco mosaic virus. Briefly: In vivo antiviral activity against Tobacco mosaic virus (TMV) inoculated left side of Nicotiana. tabacum L. leaves assessed as inactivation effect at 100 ug/mL co-incubated with virus measured after 3 to 4 days.
Experiment [8] relates to Tobacco mosaic virus. In words: In vivo antiviral activity against Tobacco mosaic virus (TMV) pre-inoculated Nicotiana. tabacum L. leaves assessed as curative effect at 500 ug/mL measured after 3 to 4 days.

For `CCCCN[C@H]1c2c(c3cc(OC)c(OC)cc3c3cc(OC)ccc23)CN2C(=O)CC[C@@H]12`, the inhibition at 500 µg/mL in the experiment with Tobacco mosaic virus [1] amounted to 52.5%. Moreover, the inhibition in vivo at 500 µg/mL with Tobacco mosaic virus [2] was found to be 50.3%; with Tobacco mosaic virus [6], 47.2%; in the experiment on Tobacco mosaic virus [8], 47.5%. In addition, the inhibition in vivo at 100 µg/mL with Tobacco mosaic virus [3] was found to be 26.2%; in the experiment with Tobacco mosaic virus [4], 20.3%; in the experiment on Tobacco mosaic virus [7] it was 25.6%. Besides, the inhibition at 100 µg/mL with Tobacco mosaic virus [5] turned out to be 30%.

As for `CCCCN[C@@H]1c2c(c3cc(OC)c(OC)cc3c3cc(OC)ccc23)CN2C(=O)CC[C@H]12`, the inhibition at 500 µg/mL with Tobacco mosaic virus [1] stood at 38.2%. The inhibition in vivo at 500 µg/mL in the experiment on Tobacco mosaic virus [2] was 48.2%; with Tobacco mosaic virus [6], 49.4%; in the experiment on Tobacco mosaic virus [8], 41.7%. The inhibition in vivo at 100 µg/mL in the experiment with Tobacco mosaic virus [3] amounted to 20.5%; in the experiment with Tobacco mosaic virus [4], 23.6%; in the experiment with Tobacco mosaic virus [7], 25.4%. In addition, in the experiment on Tobacco mosaic virus [5], the inhibition at 100 µg/mL was determined as 17.5%.

On to `CCCCN[C@@H]1c2c(c3cc(OC)c(OC)cc3c3cc(OC)ccc23)CN2C(=O)CC[C@@H]12`, for which, in the experiment on Tobacco mosaic virus [1], the inhibition at 500 µg/mL worked out at 45.7%. For the same molecule, the inhibition in vivo at 500 µg/mL with Tobacco mosaic virus [2] was 54.8%; in the experiment with Tobacco mosaic virus [6], 50%; in the experiment with Tobacco mosaic virus [8] it was 52.5%. The inhibition in vivo at 100 µg/mL came out at 28.6% with Tobacco mosaic virus [3], 24.3% in the experiment with Tobacco mosaic virus [4] and 27.6% with Tobacco mosaic virus [7]. The inhibition at 100 µg/mL with Tobacco mosaic virus [5] worked out at 20%.

`CCCCN[C@H]1c2c(c3cc(OC)c(OC)cc3c3cc(OC)ccc23)CN2C(=O)CC[C@H]12`: in the experiment on Tobacco mosaic virus [1], the inhibition at 500 µg/mL is 44.1%. The results for the inhibition in vivo at 500 µg/mL in the experiment with Tobacco mosaic virus [2], in the experiment on Tobacco mosaic virus [6] and with Tobacco mosaic virus [8] were 46.8%, 43.3% and 36.2%, respectively. The inhibition in vivo at 100 µg/mL in the experiment with Tobacco mosaic virus [3] turned out to be 17.6%; in the experiment with Tobacco mosaic virus [4] it was 14.3%; with Tobacco mosaic virus [7] it was 19.8%. Besides, the inhibition at 100 µg/mL with Tobacco mosaic virus [5] was determined as 20.4%.

Take `CCCCN[C@H]1c2c(c3cc(OC)c(OC)cc3c3cc(OC)ccc23)CN2CCC[C@@H]12`: in the experiment on Tobacco mosaic virus [1], the inhibition at 500 µg/mL came to 62.3%. The inhibition in vivo at 500 µg/mL with Tobacco mosaic virus [2] turned out to be 65.5%; with Tobacco mosaic virus [6], 58.9%; in the experiment with Tobacco mosaic virus [8], 60.2%. Further, the inhibition in vivo at 100 µg/mL stood at 34.9% in the experiment on Tobacco mosaic virus [3], 25.9% with Tobacco mosaic virus [4] and 30% in the experiment with Tobacco mosaic virus [7]. Besides, the inhibition at 100 µg/mL in the experiment on Tobacco mosaic virus [5] was determined as 28.4%.

For the molecule `CCCCN[C@@H]1c2c(c3cc(OC)c(OC)cc3c3cc(OC)ccc23)CN2CCC[C@H]12`, the inhibition at 500 µg/mL in the experiment with Tobacco mosaic virus [1] was determined as 47.6%. Further, the figures for the inhibition in vivo at 500 µg/mL in the experiment on Tobacco mosaic virus [2], with Tobacco mosaic virus [6] and in the experiment on Tobacco mosaic virus [8] were 57.6%, 53.5% and 58.2%, respectively. The inhibition in vivo at 100 µg/mL came to 27.4% with Tobacco mosaic virus [3], 20.5% in the experiment on Tobacco mosaic virus [4] and 23.7% with Tobacco mosaic virus [7]. For the same molecule, in the experiment with Tobacco mosaic virus [5], the inhibition at 100 µg/mL came out at 24.3%.

Turning to `CCCCN[C@@H]1c2c(c3cc(OC)c(OC)cc3c3cc(OC)ccc23)CN2CCC[C@@H]12`, the inhibition at 500 µg/mL in the experiment on Tobacco mosaic virus [1] stood at 72.3%. The inhibition in vivo at 500 µg/mL stood at 69.5% in the experiment on Tobacco mosaic virus [2], 64.2% with Tobacco mosaic virus [6] and 66.6% in the experiment on Tobacco mosaic virus [8]. Besides, the inhibition in vivo at 100 µg/mL in the experiment on Tobacco mosaic virus [3] came to 36.8%; in the experiment on Tobacco mosaic virus [4], 30.4%; in the experiment with Tobacco mosaic virus [7] it was 32.6%. Further, in the experiment with Tobacco mosaic virus [5], the inhibition at 100 µg/mL is 41.2%.

`CCCCN[C@H]1c2c(c3cc(OC)c(OC)cc3c3cc(OC)ccc23)CN2CCC[C@H]12`: the inhibition at 500 µg/mL in the experiment on Tobacco mosaic virus [1] was determined as 51.4%. The inhibition in vivo at 500 µg/mL in the experiment on Tobacco mosaic virus [2] is 54.2%; in the experiment on Tobacco mosaic virus [6], 42.3%; with Tobacco mosaic virus [8], 50.2%. Besides, the inhibition in vivo at 100 µg/mL is 20% with Tobacco mosaic virus [3], 16.7% with Tobacco mosaic virus [4] and 15.2% in the experiment on Tobacco mosaic virus [7]. Moreover, in the experiment on Tobacco mosaic virus [5], the inhibition at 100 µg/mL was 19.9%.
